Measurements: PMC9312114, “Synthesis and Evaluation of Novel DNA Minor Groove Binders as Antiamoebic Agents” (Antibiotics, 2022)
In brackets after ≈: the same amount, converted by molar mass.

Legend:
Acanthamoeba castellanii [1] = assay: Amoebicidal assay; assay type: cell-based, Acanthamoeba castellanii genotype T4 (ATCC 50492); conditions: for MIC50 / viability at 50 µM: Acanthamoeba castellanii; for MIC50: read-out: MIC50 (minimum inhibitory concentration required to inhibit 50% of amoeba growth); for viability at 50 µM: 24 h, negative control 100%, read-out: amoeba viability; for A. castellanii, 25 µM: Table 2, 25 µM; for A. castellanii, 25 µM / A. castellanii, 75 µM / A. castellanii, 100 µM: amoeba alone 100; for A. castellanii, 75 µM: Table 2, 75 µM; for A. castellanii, 100 µM: Table 2, 100 µM
Protocol: Acanthamoeba castellanii genotype T4 (ATCC 50492) was cultivated in 10 mL growth medium of peptone yeast glucose (PYG) in tissue flasks (Baig, et al., 2021; Anwar, et al., 2019). The growth medium, PYG, consists of 0.75% proteose peptone, 0.75% yeast extract, and 1.5% glucose. Next, the amoebae were kept in tissue flasks and incubated at 30 °C.
To determine the compounds’ antiamoebic effects, amoebicidal assays were conducted. The 5 × 10^5 amoebae were placed in a 24-well plate and brought to a final volume of 500 µL. […] The 24-well plate was then placed in a 30 °C incubator for 24 h. Positive and negative controls were added to the assay in order to ensure reliable results. Serving as the negative control was the amoebae alone, with RPMI [4]. Meanwhile, amoebae, along with 0.25% sodium dodecyl sulphate (SDS), were used as the positive control. Through the addition of 0.1% methylene blue, live and dead amoebae were distinguished. Additionally, significant compounds were identified by conducting a Student’s t-test with a two-tailed distribution. Furthermore, the MIC50 values of three compounds were determined by using concentrations of […], 75, and 100 µM.

Acanthamoeba castellanii [2] = assay: Encystation assay; assay type: cell-based; conditions: 16% glucose, 48 h, negative control 100% cysts
Protocol: The effects of the compounds on amoeba encystation were determined through the conduction of encystation assays. Briefly, 1 × 10^6 trophozoites were incubated with the compounds in a final concentration of 16% filter-sterilized glucose. Following a 48 h incubation period, 0.1% SDS was added per well for 20 min. The cysts were then counted by using a haemocytometer. To ensure accuracy, Acanthamoeba castellanii was cultured in 16% glucose, serving as the negative control.

HeLa cells = assay: Cytotoxicity assay (LDH release); assay type: cell-based, human; conditions: for cytotoxicity against human HeLa cells: 50 µM, 24 h, LDH release, Triton X-100 = 100%
Protocol: HeLa cells were acquired from American Type Culture Collection (ATCC) of identification ATCC CCL-2, Singapore. The cells are utilized to conduct cytotoxicity and cytopathogenicity assays. Through their cultivation in complete media, the cells were grown, and then they were placed in a 95% humidifying incubator at 37 °C and 5% CO2. Complete medium comprises Roswell Park Memorial Media (RPMI), 1% penicillin–streptomycin, 1% minimum essential medium amino acids, 1% L-glutamine, and 10% fetal bovine serum (FBS). To determine the toxicity of the compounds against human HeLa cells, cytotoxicity assays were conducted. In short, HeLa cells were cultured in 96-well plates and treated with the compounds. The plate was then placed in a humidifying incubator with 95% humidity and 5% CO2, at 37 °C, for 24 h. After 24 h, the supernatant was collected, and the cytotoxicity of the compounds was determined through a cytotoxicity detection kit that measured the quantity of lactate dehydrogenase (LDH) release. Accurate results were ensured through the addition of positive and negative controls. Untreated HeLa cells served as the negative control, whereas HeLa cells treated with 1% Triton X-100 served as the positive control. Finally, the cytotoxic properties were numerically determined by following the necessary calculations: (absorbance of media from cells treated with the drugs—absorbance of media from cells of negative control)/(absorbance of media from cells of positive control—absorbance of media from cells of negative control) × 100 [19].

[3] = test system: Acanthamoeba castellanii cysts; assay: Excystation assay; assay type: cell-based; conditions: cysts in PYG, negative control 100%, read-out: viable trophozoites (re-emergence of cysts to trophozoites)
Protocol: Amoeba culture was suspended in 3 mL phosphate-buffered saline (PBS) and placed on non-nutrient bacteriological agar plates to allow for the growing of Acanthamoeba castellanii cysts. After two weeks, PBS was applied to plates containing amoeba cysts, which were then scraped off. The amoebae were centrifuged at 3000× g for 10 min, and the resulting pellet was resuspended in RPMI. The 5 × 10^5 cysts were then incubated in PYG, along with 50 µM of the compounds. To ensure accuracy, amoeba cysts in PYG alone were considered as the negative control, whereas amoeba cysts in RPMI alone were taken as the positive control, as the cysts would not be able to revert back to trophozoites. The amoeba trophozoites were then numbered by using a haemocytometer.

[4] = test system: Acanthamoeba castellanii on HeLa cell monolayers; assay: Cytopathogenicity assay (amoeba-mediated host-cell death); assay type: cell-based; conditions: amoebae pretreated with 50 µM for 2 h, then 24 h on HeLa cells, negative control 100%
Protocol: Amoeba-mediated host-cell death was determined by treating 5 × 10^5 amoebae with 50 µM of compounds. The amoeba-containing plate was then placed in the incubator for 2 h at 30 °C. Following the 2 h incubation period, the treated amoebae were put on confluent HeLa cell monolayers. The plate containing the treated amoebae and HeLa cells was incubated for 24 h. Progressing the incubation period, the supernatant was collected, and the cytotoxicity was determined. Accurate results were ensured through the addition of negative and positive controls. The untreated amoebae, alone, on the cells served as the negative control, while the cells treated with Triton X-100 served as the positive control.

[5] = set-up: method as in PMID 35600289; conditions: cited from earlier work
[6] = set-up: method as in PMID 35600289; conditions: pH of 7; cited from earlier work
[7] = test system: Acanthamoeba cysts and trophozoites; set-up: method as in PMID 9736540; conditions: 0.5 to 2.5% solution; cited from earlier work

Row | Compound | MIC50 (Acanthamoeba castellanii [1]) | viability at 50 µM (Acanthamoeba castellanii [1]) | A. castellanii, 25 µM (Acanthamoeba castellanii [1]) | A. castellanii, 75 µM (Acanthamoeba castellanii [1]) | A. castellanii, 100 µM (Acanthamoeba castellanii [1]) | cysts present (Acanthamoeba castellanii [2]) | cytotoxicity against human HeLa cells (HeLa cells) | viability at 50 µM [3] | amoeba-mediated host-cell death (cytotoxic activity due to amoeba) [4] | pKa [5] | solubility in water [6] | toxic activity (positive control) (HeLa cells) | antiamoebic activity [7]
1 | CC(C)c1sc(NC(=O)c2cc(NC(=O)c3cc(NC(=O)c4nccn4C)cn3C)cn2C)nc1C(=O)NCCCN(C)C [MGB3, N-(3-(dimethylamino)propyl)-5-isopropyl-2-(1-methyl-4-(1-methyl-4-(1-methyl-1H-imidazole-2-carboxamido)-1H-pyrrole-2-carboxamido)-1H-pyrrole-2-carboxamido)thiazole-4-carboxamide] | 65.9 µM (≈ 41 µg/mL) | 76.2% | 43.7 ± 3.8 | 51 ± 4.7 | 46 ± 4.8 | 83.5% | 16.2% | 64.3% | 41.5% |  |  |  | 
2 | CC(C)c1sc(NC(=O)c2cc(NC(=O)c3cc(NC(=O)c4cscn4)cn3C)cn2C)nc1C(=O)NCCCN(C)C [MGB4, N-(3-(dimethylamino)propyl)-5-isopropyl-2-(1-methyl-4-(1-methyl-4-(thiazole-4-carboxamido)-1H-pyrrole-2-carboxamido)-1H-pyrrole-2-carboxamido)thiazole-4-carboxamide] |  | 95.2% |  |  |  | 82.3% | 18.4% | 47.3% | 49.4% |  |  |  | 
3 | CN(C)CCCNC(=O)c1cc(NC(=O)c2cc(NC(=O)c3cc(NC(=O)c4cscn4)cn3C)cn2C)cn1C [MGB6, N-(5-((5-((5-((3-(dimethylamino)propyl]carbamoyl)-1-methyl-1H-pyrrol-3-yl)carbamoyl)-1-methyl-1H-pyrrol-3-yl}carbamoyl)-1-methyl-1H-pyrrol-3-yl)-1,3-thiazole-4-carboxamide] | 58.3 µM (≈ 33.8 µg/mL) | 59.5% | 57 ± 2.4 | 48 ± 5.5 | 45 ± 1.4 | 46.3% | 14.4% | 41.4% | 49.5% |  |  |  | 
4 | Cn1cc(NC(=O)c2cc(NC(=O)c3cc4ccccc4oc3=O)cn2C)cc1C(=O)NCCCN1CCOCC1 [MGB16, 1-methyl-N-(1-methyl-5-{[3-(morpholin-4-yl)propyl]carbamoyl}-1H-pyrrol-3-yl)-4-(2-oxo-2H-chromene-3-amido)-1H-pyrrole-2-carboxamide] |  | 43.2% |  |  |  | 45.6% | 12.7% | 51.7% | 88.6% |  |  |  | 
5 | Cn1cc(NC(=O)c2cc(NC(=O)CCSc3ccc4ccccc4c3)cn2C)cc1C(=O)NCCCN1CCOCC1 [MGB20, 1-methyl-4-(1-methyl-4-(3-(naphthalen-2-ylthio)propanamido)-1H-pyrrole-2-carboxamido)-N-(3-morpholinopropyl)-1H-pyrrole-2-carboxamide] | 83.6 µM (≈ 50.4 µg/mL) | 81.9% | 64 ± 3.2 | 54.6 ± 5.8 | 48 ± 1.1 | 39% | 31.4% | 96% | 83.2% |  |  |  | 
6 | Cc1ccc(CSCCC(=O)Nc2cc(C(=O)Nc3cc(C(=O)NCCCN(C)C)n(C)c3)n(C)c2)cc1 [MGB22, N-(3-(dimethylamino)propyl)-1-methyl-4-(1-methyl-4-(3-((4-methylbenzyl)thio)propanamido)-1H-pyrrole-2-carboxamido)-1H-pyrrole-2-carboxamide] |  | 66.5% |  |  |  | 30.3% | 33.7% | 52.9% | 71.5% |  |  |  | 
7 | CN(C)CCCNC(=O)c1cc(NC(=O)c2cc(NC(=O)c3ccc(C#Cc4ccccc4)cc3)cn2C)cn1C [MGB26, N-(3-(dimethylamino)propyl)-1-methyl-4-(1-methyl-4-(4(phenylethynyl)benzamido)-1H-pyrrole-2-carboxamido)-1H-pyrrole-2-carboxamide] |  | 82.7% |  |  |  | 52.3% | 33.5% | 79.1% | 67.3% |  |  |  | 
8 | Cn1cc(NC(=O)c2cc(NC(=O)c3ccc(C#Cc4ccccc4)cc3)cn2C)cc1C(=O)NCCCN1CCOCC1 [MGB28, 1-methyl-4-(1-methyl-4-(4-(phenylethynyl)benzamido)-1H-pyrrole-2-carboxamido)-N-(3-morpholinopropyl)-1H-pyrrole-2-carboxamide] |  | 97.2% |  |  |  | 29.6% | 13.7% | 40.6% | 91.9% |  |  |  | 
9 | CN(C)CCCNC(=O)c1cc(NC(=O)c2cc(NC(=O)c3ccc(/C=C/c4ccccc4)cc3)cn2C)cn1C [MGB30, (E)-N-(3-(dimethylamino)propyl)-1-methyl-4-(1-methyl-4-(4-styrylbenzamido)-1H-pyrrole-2-carboxamido)-1H-pyrrole-2-carboxamide] |  | 63.4% |  |  |  | 27.8% | 34% | 78.1% | 87.3% |  |  |  | 
10 | Cn1cc(NC(=O)c2cc(NC(=O)c3ccc(/C=C/c4ccccc4)cc3)cn2C)cc1C(=O)NCCCN1CCOCC1 [MGB32, (E)-1-methyl-4-(1-methyl-4-(4-styrylbenzamido)-1H-pyrrole-2-carboxamido)-N-(3-morpholinopropyl)-1H-pyrrole-2-carboxamide] |  | 80.1% |  |  |  | 41.5% | 22.4% | 62.1% | 96.3% |  |  |  | 
11 | Cn1cc(NC(=O)c2cc(NC(=O)c3ccc(/C=C/c4cnc5ccccc5c4)cc3)cn2C)cc1C(=O)NCCN1CCOCC1 [MGB-BP-3] |  |  |  |  |  |  |  |  |  | 5.26 | insoluble in water |  | 
12 | Triton X-100 [reference compound] |  |  |  |  |  |  |  |  |  |  |  | 100% | 
13 | povidone-iodine |  |  |  |  |  |  |  |  |  |  |  |  | good amount of antiamoebic activity
